Laboratory results reported in patent US6436631B1, “Comparative phenotype analysis for assessment of biologically active compounds such as antimicrobials” (priority 2000, dated 2002).
Where a SMILES comes first, the peptide text is derived from it.

Experiments:
Type in all cases: cell-based
[1] = system: Saccharomyces cerevisiae (BY4741); assay: EA MicroPlate nutrient stimulation test without methionine (iodo-nitro-tetrazolium violet reduction); settings: pyridoxine well (0.25 μM); 30° C., 2 days, visual
Description: In this Example, the response of a yeast to various compounds was tested. The yeast used in these experiments was Saccharomyces cerevisiae (BY4741, obtained from Dr. Mark Johnston, Washington University, St. Louis, Mo.). The genotype of this strain was indicated as being Mat a (i.e., mating type “a”), ura-, his-, leu-, and met-. In these experiments, the ability of this strain to grow in a culture medium without methionine was investigated. Methionine interferes with the ability to test this organism for its utilization of other potential sulfur sources (i.e., if methionine is added to a culture medium the organism preferentially uses it as a sulfur source). The yeast was grown for 48 hours at 30° C. on R2A agar medium (Acumedia). Cells were removed from the agar surface with a sterile cotton swab and suspended at a cell density of 65% transmittance (as read using a BiologTM turbidimeter) in an inoculating fluid containing 50 mM glucose, 0.15 mM uracil, 0.15 mM L-histidine, 0.15 mM L-leucine, 0.15 mM MgCl2, 1.0 mM CaCl2, 2.0 mM NaCl, 1.0 mM KCl, 3.0 mM NH4Cl, 1.0 mM NaH2PO4, 0.1 mM Na2SO4, 0.01% iodo-nitro-tetrazolium violet, 0.01% phytagel (gellan gum), 0.03% pluronic F-68; the pH was adjusted to 6.0. The cell suspension (100 μl/well) was then used to inoculate a BiologTM EA MicroPlateTM, which tests the ability of a cell to be stimulated by a set of 95 different nutrients. The nutrients included within the microarray were: […] One well (A-1) contains no nutrients and is used as a reference (i.e., control) well. After inoculation, the microarray was incubated at 30° C. for 2 days and visually observed.

E. coli (MG1655) = assay: BAC combination (synergy/antagonism) testing in ES1, ES2 and ES3 MicroPlate sensitivity panels, tetrazolium violet
Description: In this Example, the susceptibility of E. coli (MG1655) was tested in the presence of vancomycin (10 μg/ml) or sulfamethoxazole (235 μg/ml) in microarrays containing various additional compounds. The microarrays were present in three Biolog™ sensitivity test panels, referred to as ES1, ES2 and ES3 MicroPlates™. The organisms were added to a sterile aqueous suspension containing 0.40% NaCl, 0.03% pluronic F68, 0.01% phytagel, and 0.01% tetrazolium violet, to a cell density of 85% transmittance (as measured using a BiologTm turbidimeter). The BAC to be tested was added to the suspension just prior to inoculating the organisms (100 μl/well) into the wells of the microarrays. The wells of these ES MicroPlates™ contained a basal broth medium consisting of tryptone (2 g/L), yeast extract (1 g/L), and NaCl (1 g/L). […]

E. coli MG1655 = assay: phenotype microarray (PM) comparative profiling of antimicrobials, S-O-R scoring, distance matrix and dendrogram; settings: 7 PMs; for clustering in dendrogram of PM S-O-R response (FIG. 4): 1x level of each antimicrobial (lowest concentration giving detectable inhibition of respiration), 665 phenotypes, 48 hours; for PM response pattern (fingerprint) of cells exposed to the antimicrobial: partially inhibitory concentrations (1x, 2x)
Excerpt: In this Example, experiments are described in which the feasibility of using PMs for analyzing the metabolic effects of antimicrobial compounds and their mechanisms of action were investigated. Specifically, the experiments were designed to determine whether compounds that act via interaction with specific bacterial proteins (“target-specific”) can be distinguished from those acting via non-specific mechanisms, solely on the basis of differences in signature metabolic profiles. In addition, the experiments were designed to determine whether different interactors of the same pathway produce a similar signature profile, as well as whether interactors of different pathways produce distinctly different profiles.
Twenty chemicals were selected for inclusion in these experiments. Fifteen of these, listed below in Table 3 as “single target antimicrobials” are thought to have relatively specific modes of action, whereas five antimicrobials, listed as “multiple target antimicrobials” are thought to have non-specific modes of action.
An initial set of experiments was performed to select the concentrations of each chemical as it was desirable to use a partially inhibitory concentration. A completely inhibitory or sub-inhibitory concentration would not provide any information. Partial inhibitory levels were determined using the criterion of decreased formation of purple color due to inhibition of tetrazolium violet reduction (i.e., respiration). Each compound was tested at two concentrations giving partial inhibition of respiration. The lower concentration, referred to as “1x,” was the lowest concentration giving detectable inhibition of respiration. The higher concentration, referred to as “2x,” was twice the 1x concentration. […] Thus, only 1x and 2x concentrations were used.
In these experiments, E. coli MG1655 was tested against 20 antimicrobials at two concentrations using 7 PMs each, for a total of 280 PMs. […] Since in these experiments each PM contains 95 phenotypes, the total number of phenotypes analyzed here was 26,600. Each PM was monitored kinetically every 15 minutes using a specialized instrument described is U.S. patent application Ser. No. 09/277,353 (herein incorporated by reference) for an incubation duration of 48 hours. Thus, the total number of data points for the experiments was 5,107,200.
The results of the data collected for a run is a kinetic phenotype of the cell exposed to an antimicrobial overlaid and compared against the phenotype of the cell without exposure to the antimicrobial. When the two kinetic tracings of tetrazolium reduction (i.e., cell respiration) overlap, there is no difference in the response to that phenotype (indicated as “O”). When the control tracing exceeds the antimicrobial tracing, the organism is scored as “more sensitive” or “S.” When the antimicrobial tracing exceeds the control tracing, the organism is scored as “more resistant,” or “R.” Based on visual examination of the PMs after incubation, the threshold values for judging S and R results were determined. The software then automatically calculated the areas under the differential tracings and applied threshold values to score all 26,600 phenotypes as S, O, or R.
From the S—O—R data, a distance matrix was generated. The S—O—R response (a string of 665 values) for one antimicrobial was compared to the response for another antimicrobial, and the differences summed up. A difference of O to S or of O to R was assigned a value of 1, and a difference of S to R was assigned a value of 2. The string of 665 differences was then summed up.

## Cc1ncc(CO)c(CO)c1O [pyridoxine]
[1]
  stimulation of growth/respiration (pink color) in medium without methionine: increased pink color

## Cc1nnc(SCC2=C(C(=O)O)N3C(=O)[C@@H](NC(=O)Cn4cnnn4)[C@H]3SC2)s1 [cefazolin]
E. coli (MG1655); in the presence of 10 μg/ml vancomycin, cefazolin at 2.0 and 4.0 μg/ml
  change of sensitivity of E. coli strain to panel compound: increased sensitivity
E. coli (MG1655); in the presence of 235 μg/ml sulfamethoxazole, cefazolin at 0.5, 1.0, 2.0 and 4.0 μg/ml
  change of sensitivity of E. coli strain to panel compound: increased sensitivity

## CCn1cc(C(=O)O)c(=O)c2ccc(C)nc21 [nalidixic acid]
E. coli (MG1655); in the presence of 10 μg/ml vancomycin, nalidixic acid at 1.0, 2.0 and 4.0 μg/ml
  change of sensitivity of E. coli strain to panel compound: increased sensitivity
E. coli MG1655
  clustering in dendrogram of PM S-O-R response (FIG. 4): did not cluster with the other two DNA gyrase inhibiting chemicals

## CC1(C)S[C@@H]2[C@H](NC(=O)[C@H](N)c3ccccc3)C(=O)N2[C@H]1C(=O)O [ampicillin]
E. coli MG1655
  clustering in dendrogram of PM S-O-R response (FIG. 4): cluster

## CC(=O)OCC1=C(C(=O)O)N2C(=O)[C@@H](NC(=O)Cc3cccs3)[C@H]2SC1 [cephalothin]
E. coli (MG1655); in the presence of 10 μg/ml vancomycin, cephalothin at 10 and 20 μg/ml
  change of sensitivity of E. coli strain to panel compound: increased sensitivity
E. coli (MG1655); in the presence of 235 μg/ml sulfamethoxazole, cephalothin at 5.0, 10 and 20 μg/ml
  change of sensitivity of E. coli strain to panel compound: increased sensitivity
E. coli MG1655
  clustering in dendrogram of PM S-O-R response (FIG. 4): cluster

## polymyxin B
E. coli MG1655
  PM response pattern (fingerprint) of cells exposed to the antimicrobial: more closely resembled the multiple target antimicrobials

## Nc1ccc(S(=O)(=O)Nc2nccs2)cc1 [sulfathiazole]
E. coli MG1655
  PM response pattern (fingerprint) of cells exposed to the antimicrobial: more closely resembled the multiple target antimicrobials

## C/C=C/C/C=C/CCC(=O)[C@H]1O[C@H]1C(N)=O [cerulenin]
E. coli MG1655
  PM response pattern (fingerprint) of cells exposed to the antimicrobial: more closely resembled the multiple target antimicrobials

## COc1cc(Cc2cnc(N)nc2N)cc(OC)c1OC [trimethoprim]
E. coli (MG1655); in the presence of 10 μg/ml vancomycin, trimethoprim at 0.17, 0.33, 0.67 and 1.3 ng/ml
  change of sensitivity of E. coli strain to panel compound: increased sensitivity
E. coli (MG1655); in the presence of 235 μg/ml sulfamethoxazole, trimethoprim at 0.17, 0.33, 0.67 and 1.3 ng/ml
  change of sensitivity of E. coli strain to panel compound: increased sensitivity

## O=C(Cc1cccs1)N[C@@H]1C(=O)N2C(C(=O)[O-])=C(C[n+]3ccccc3)CS[C@H]12 [cephaloridine]
E. coli (MG1655); in the presence of 235 μg/ml sulfamethoxazole, cephaloridine at 0.75, 1.5, 3.0 and 6.0 μg/ml
  change of sensitivity of E. coli strain to panel compound: increased sensitivity

## NC(=O)c1cc[n+](CC2=C(C(=O)O)N3C(=O)[C@@H](NC(=O)[C@@H](c4ccccc4)S(=O)(=O)[O-])[C@H]3SC2)cc1 [cefsulodin]
E. coli (MG1655); in the presence of 235 μg/ml sulfamethoxazole, cefsulodin at 8 and 16 μg/ml
  change of sensitivity of E. coli strain to panel compound: increased sensitivity

## O=[N+]([O-])c1ncc[nH]1 [azomycin]
E. coli (MG1655); in the presence of 235 μg/ml sulfamethoxazole, azomycin at 0.2, 0.4, 0.8 and 1.6 μg/ml
  change of sensitivity of E. coli strain to panel compound: increased sensitivity

## O=C(N[C@H](CO)[C@H](O)c1ccc([N+](=O)[O-])cc1)C(Cl)Cl [chloramphenicol]
E. coli MG1655
  clustering in dendrogram of PM S-O-R response (FIG. 4): cluster

## [Cl][Ni][Cl] [nickel chloride]
E. coli (MG1655); in the presence of 235 μg/ml sulfamethoxazole, nickel chloride at 20 and 40 μg/ml
  change of sensitivity of E. coli strain to panel compound: increased sensitivity

## [H]/N=C(/N)N[C@H]1[C@H](O)[C@@H](O)[C@H](O[C@@H]2O[C@@H](C)[C@](O)(C=O)[C@H]2O[C@@H]2O[C@@H](CO)[C@H](O)[C@@H](O)[C@@H]2NC)[C@@H](N/C(N)=N\[H])[C@@H]1O [streptomycin]
E. coli MG1655
  clustering in dendrogram of PM S-O-R response (FIG. 4): cluster

## [Cl][Co][Cl] [cobalt chloride]
E. coli (MG1655); in the presence of 235 μg/ml sulfamethoxazole, cobalt chloride 12 and 25 μg/ml
  change of sensitivity of E. coli strain to panel compound: increased sensitivity

## CC[C@H](C)[C@H](N)C1=N[C@H](C(=O)N[C@@H](CC(C)C)C(=O)N[C@H](CCC(=O)O)C(=O)N[C@H](C(=O)N[C@H]2CCCCNC(=O)[C@H](CC(N)=O)NC(=O)[C@@H](CC(=O)O)NC(=O)[C@H](Cc3cnc[nH]3)NC(=O)[C@@H](Cc3ccccc3)NC(=O)[C@H]([C@@H](C)CC)NC(=O)[C@@H](CCCN)NC2=O)[C@@H](C)CC)CS1 [bacitracin] (HELM PEPTIDE1{[CC[C@H](C)[C@H](N)C1=N[C@H](C(=O)[*:2])CS1].L.[dE].I.K.[NCCC[C@@H](N[*:1])C(=O)[*:2]].I.[dF].H.[dD].N}$PEPTIDE1,PEPTIDE1,5:R3-11:R2$$$V2.0)
E. coli MG1655
  clustering in dendrogram of PM S-O-R response (FIG. 4): cluster

## C[C@@H]1O[C@@H]1P(=O)(O)O [phosphomycin]
E. coli MG1655
  clustering in dendrogram of PM S-O-R response (FIG. 4): cluster

## CC(=O)O[C@H]1C[C@@]2(C)[C@@H](C[C@@H](O)[C@H]3[C@@]4(C)CC[C@@H](O)[C@@H](C)[C@@H]4CC[C@@]32C)/C1=C(\CCC=C(C)C)C(=O)O [fusidic acid]
E. coli (MG1655); in the presence of 10 μg/ml vancomycin, fusidic acid at 200 and 400 μg/ml
  change of sensitivity of E. coli strain to panel compound: increased sensitivity

## coumermycin
E. coli MG1655
  clustering in dendrogram of PM S-O-R response (FIG. 4): clustered

## [Cl][Cr]([Cl])[Cl] [chromium chloride]
E. coli (MG1655); in the presence of 235 μg/ml sulfamethoxazole, chromium chloride at 200 and 400 μg/ml
  change of sensitivity of E. coli strain to panel compound: increased sensitivity

## CCn1cc(C(=O)O)c(=O)c2cc3c(cc21)OCO3 [oxolinic acid]
E. coli MG1655
  clustering in dendrogram of PM S-O-R response (FIG. 4): clustered

## CO[C@@H]1[C@@H](OC(N)=O)[C@@H](O)[C@H](Oc2ccc3c(O)c(NC(=O)c4ccc(O)c(CC=C(C)C)c4)c(=O)oc3c2C)OC1(C)C [novobiocin]
E. coli (MG1655); in the presence of 10 μg/ml vancomycin, novobiocin at 33 and 66 μg/ml
  change of sensitivity of E. coli strain to panel compound: increased sensitivity
E. coli (MG1655); in the presence of 235 μg/ml sulfamethoxazole, novobiocin at 66 and 133 μg/ml
  change of sensitivity of E. coli strain to panel compound: increased resistance

## CO[C@@]1(NC(=O)Cc2cccs2)C(=O)N2C(C(=O)O)=C(COC(N)=O)CS[C@@H]21 [cefoxitin]
E. coli (MG1655); in the presence of 10 μg/ml vancomycin, cefoxitin at 0.75 and 1.5 μg/ml
  change of sensitivity of E. coli strain to panel compound: increased sensitivity

## N[C@@H](C(=O)N[C@@H]1C(=O)N2C(C(=O)O)=C(Cl)CS[C@H]12)c1ccccc1 [cefaclor]
E. coli (MG1655); in the presence of 235 μg/ml sulfamethoxazole, cefaclor at 1.33, 2.66 and 5.33 μg/ml
  change of sensitivity of E. coli strain to panel compound: increased sensitivity
